Measurements reported in paper PMC12264794, “Homoleptic complexes of titanium(IV) fused with O^N^O Schiff base derivatives: design, BSA–DNA interaction, molecular docking, DFT and cytotoxicity” (RSC Advances, 2025).

Columns and labels:
CT-DNA = test: Agarose gel electrophoresis, CT-DNA cleavage; assay type: biochemical, calf; details: complex at 3, 1.5 and 0.75 mM
Protocol: The interaction and effectiveness of the Ti(IV) complex on CT-DNA were investigated using the agarose gel electrophoresis technique. This was accomplished by incubating the reaction mixtures separately, each of which contained 20 μL of CT-DNA and 20 μL of titanium complexes in PBS buffer solution, at 310 K for one hour. The tracking […] dye (1 μL) and all of the prepared solutions (5 μL) were then combined and applied to the wells of a 1% agarose gel containing 1 mM ethidium bromide that was prepared well in advance. Then the reaction mixture of complexes and CT-DNA was loaded in the wells separately using 0.25% […] dye. The electrophoresis mobility experiment was then carried out in an EDTA-PBS buffer for 60 minutes at a constant electrical voltage of 100 V until the dye reached 50% of the gel distribution area. In order to evaluate the degree of DNA binding capacity of the Ti(IV) complexes, the resultant bands were finally captured on a camera using the AXYGEN digital camera Gel Documentation System under UV light.[49–51]
There are two types of cleavage of nucleic acid chains: enzymatic and non-enzymatic. Either the oxidative cleavage of deoxyribose residues or the hydrolysis of phosphodiester links, known as hydrolytic cleavage, can result in non-enzymatic cleavage. Strong Lewis acidic metal complexes with transition metals are the main source of hydrolytic cleavage. The hydrolysis of the phosphate backbone of the nucleic acid is facilitated by a metal–phosphate intermediate. In order to understand the catalytic mechanisms of natural nucleases and to develop medications that target nucleic acids, it is crucial to design and synthesize metal complexes that can hydrolytically cleave the phosphodiester link. Agarose gel electrophoresis was used to test the capacity of the complex to cleave CT-DNA.

BSA = biological target: T1, BSA (Bos taurus, UniProt P02769); test: BSA site marker (ibuprofen, warfarin) fluorescence quenching; assay type: binding, bovine; details: 298 K; for Kb binding constant, BSA+Ibuprofen: site probe ibuprofen; for Kb binding constant, BSA + Warfarin: site probe warfarin
T1 construct: purchased Himedia Chemicals
Protocol: Fluorescence emission spectroscopy was used for site marker investigation, using an excitation wavelength of 280 nm. As they bind to the two most prevalent drug-binding sites, Sudlow sites I and II, two distinct site marker medications, warfarin (WAR) and ibuprofen (IBU), were utilized as particular site markers (probes) in this experiment. Separately, 10 mg of the site marker probes (WAR) and (IBU) were dissolved in PBS buffer. Subsequently, a known quantity of BSA was added to each probe stock solution to achieve a 5 mM concentration, and the mixture was maintained at 2 to 6 °C. The BSA + site marker binary solution was then titrated with different metal complex concentrations ranging from 0 to 80 μM, while maintaining constant binary solutions of BSA + IBU and BSA + WAR.[55,56]
In our experiment, fluorescence titration techniques were employed to determine the binding position of the BSA molecule. For the fluorescence titration, the excitation wavelength was […], and the emission was monitored between 300 and 500 nm where a fixed concentration of BSA (3 × 10^−6 M) and site markers (BSA + WAR) (BSA + IBU) were taken separately and titrated with the incremental addition of Ti-1-IS to Ti-6-IBr (0–100 μM). By comparing the Ksv values shown with and without site markers, the binding site of Ti(IV) complexes inside BSA was identified (ESI Table S3 ^†).
The Scatchard eqn (9) was used to examine the emission quenching data.

[1] = DPPH radical scavenging assay; assay type: biochemical; details: 40 minutes, absorbance at 517 nm
From the text: In the current study, 1,1-diphenyl 2-picrylhydrazyl (DPPH) radical scavenging screening determined the antioxidant properties of the synthesized Ti(IV) complexes. The spectrophotometric principle that led to the quenching of stable-colored radicals (DPPH) is the foundation of DPPH assays.[62] By detecting the drop in absorbance at 517 nm, which corresponds to the DPPH free radical, the scavenging activity of the produced complexes can be determined. The result of the reaction between the scavenger and colored free radical is 1,1-diphenyl-2-picrylhydrazine (DPPH-H), which lacks color. The newly synthesized Ti(IV) complexes were dissolved at a ratio of 1 mg mL^−1 in DMSO to create the stock solution. Similarly, methanol was used to prepare a stock solution of a 0.05 Mm DPPH solution. The Ti(IV) complexes were dissolved in DPPH stock solution to make (9.5 μM, 18.75 μM, 37.5 μM, 75 μM, 100 μM, and 300 μM) concentrations of the complexes and kept in a state of rest for 40 minutes under closed conditions. The absorbance of the Ti(IV) complexes was measured at 517 nm after 40 minutes for each solution loaded in 96-well plates using a Bio-Rad xMARK™ Microplate Spectrophotometer. For comparison, the absorbance of a control solution containing DPPH and methanol as blank, devoid of test samples, was also measured at the same level. Three sets of experiments were conducted for each concentration, using ascorbic acid as the standard reference. Using eqn (1), the proportion of DPPH free radical scavenging activity was calculated.[63]1 [drawing 1] where Ac and As are the absorbance of the control and the mixture. The necessary concentration of the Ti(IV) complexes to scavenge DPPH radicals was determined by employing linear regression to plot a curve between concentration and % inhibition.
In order to ascertain the antioxidant activity of the Ti(IV) complexes, a UV-vis spectrophotometric examination was performed using the 1,1-diphenyl-2-picrylhydrazyl (DPPH) method. Since DPPH is thought to be a dependable, stable, free radical, it reacts with methanol to form a […]. The ability of the complexes containing DPPH radicals to scavenge radicals was evaluated in the manner described. Several concentrations of the Ti(IV) complexes were investigated. Mixtures created by mixing DPPH with each component were subjected to spectrophotometric analysis at 517 nm to determine the absorbance. Antioxidant compounds usually transfer one electron to act as a reducing agent.

[2] = Stability studies by UV-vis in DMSO:H2O and aqueous GSH medium; assay type: physicochemical; details: DMSO : H2O (1 : 9, v/v) and aqueous GSH medium, over 72 hours
Protocol: Stability studies were carried out using DMSO : H2O medium (1 : 9, v/v) and aqueous GSH medium to perform stability tests on the freshly synthesized Ti(IV) complexes over 72 hours.

T1 sequence (P02769 25-607): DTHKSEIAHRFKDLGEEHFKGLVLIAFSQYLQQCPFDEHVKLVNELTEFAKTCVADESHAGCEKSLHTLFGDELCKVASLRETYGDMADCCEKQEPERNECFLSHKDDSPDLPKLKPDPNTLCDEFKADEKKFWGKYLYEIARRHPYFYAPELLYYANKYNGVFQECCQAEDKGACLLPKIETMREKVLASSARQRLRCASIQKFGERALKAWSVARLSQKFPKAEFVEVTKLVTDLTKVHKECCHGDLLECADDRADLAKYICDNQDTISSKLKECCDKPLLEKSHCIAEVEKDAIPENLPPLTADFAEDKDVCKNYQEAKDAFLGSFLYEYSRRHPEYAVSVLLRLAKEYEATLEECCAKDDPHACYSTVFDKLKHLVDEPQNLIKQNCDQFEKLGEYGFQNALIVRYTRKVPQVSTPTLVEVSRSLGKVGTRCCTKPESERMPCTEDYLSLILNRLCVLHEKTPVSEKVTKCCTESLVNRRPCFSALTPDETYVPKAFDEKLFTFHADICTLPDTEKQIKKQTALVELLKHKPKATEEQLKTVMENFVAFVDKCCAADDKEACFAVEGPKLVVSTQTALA

SMILES	DNA cleavage activity (CT-DNA)	Kb binding constant, BSA+Ibuprofen (BSA) [M⁻¹]	Kb binding constant, BSA + Warfarin (BSA) [M⁻¹]	IC50 [1] [µM]	Stability [2]
[O-]C(=NN=Cc1ccccc1[O-])c1ccncc1.[O-]C(=NN=Cc1ccccc1[O-])c1ccncc1.[Ti+4] [Ti-1-IS]	less cleavage activity	340	480	92.01 ± 0.1	did not change much
[O-]C(=NN=Cc1c([O-])ccc2ccccc12)c1ccncc1.[O-]C(=NN=Cc1c([O-])ccc2ccccc12)c1ccncc1.[Ti+4] [Ti-2-IN]	less cleavage activity	150	690	128.1 ± 0.3	did not change much
COc1cccc(C=NN=C([O-])c2ccncc2)c1[O-].COc1cccc(C=NN=C([O-])c2ccncc2)c1[O-].[Ti+4] [Ti-3-IO]	higher DNA cleavage even at the lowest concentration	500	580	44.59 ± 0.4	small degree of hyperchromism
[O-]C(=NN=Cc1cc(F)ccc1[O-])c1ccncc1.[O-]C(=NN=Cc1cc(F)ccc1[O-])c1ccncc1.[Ti+4] [Ti-4-IF]	higher DNA cleavage even at the lowest concentration	370	400	82.61 ± 0.1	small degree of hyperchromism
[O-]C(=NN=Cc1cc(Cl)ccc1[O-])c1ccncc1.[O-]C(=NN=Cc1cc(Cl)ccc1[O-])c1ccncc1.[Ti+4] [Ti-5-ICl]	comparatively higher DNA binding cleavage in higher concentration	350	160	72.26 ± 0.7	remained constant
Brc1ccc2c(c1)C=NN=C(c1ccncc1)[O][Ti]1([O]C(c3ccncc3)=NN=Cc3cc(Br)ccc3[O]1)[O]2 (stereo not drawn) [Ti-6-IBr]	comparatively higher DNA binding cleavage in higher concentration	540	390	74.84 ± 0.2	small degree of hyperchromism
